From ChEMBL document CHEMBL1201862, “PubChem BioAssay data set” (2004)
Active and inactive are the calls of the source.

What was measured:
[1] = target: Botulinum neurotoxin type A (Clostridium botulinum (strain Hall / ATCC 3502 / NCTC 13319 / Type A), UniProt P0DPI1); assay: High-throughput multiplex microsphere dose response for inhibitors of toxin protease, specifically Botulinum neurotoxin light chain A protease, compounds from Cherry Pick 02.; assay type: functional; conditions: read-out: EC50_MICROM
[2] = target: Botulinum neurotoxin type F (Clostridium botulinum, UniProt P30996); assay: High-throughput multiplex microsphere dose response for inhibitors of toxin protease, specifically Botulinum neurotoxin light chain F protease, compounds from Cherry Pick 02.; assay type: functional; conditions: read-out: EC50_MICROM
[3] = target: T1, Apoptotic protease-activating factor 1 (Homo sapiens, UniProt O14727); assay: SAR analysis of small molecule inhibitors of Apaf-1 in a Fluorescent assay.; assay type: functional; conditions: read-out: IC50_Mean
T1 sequence (O14727 whole entry): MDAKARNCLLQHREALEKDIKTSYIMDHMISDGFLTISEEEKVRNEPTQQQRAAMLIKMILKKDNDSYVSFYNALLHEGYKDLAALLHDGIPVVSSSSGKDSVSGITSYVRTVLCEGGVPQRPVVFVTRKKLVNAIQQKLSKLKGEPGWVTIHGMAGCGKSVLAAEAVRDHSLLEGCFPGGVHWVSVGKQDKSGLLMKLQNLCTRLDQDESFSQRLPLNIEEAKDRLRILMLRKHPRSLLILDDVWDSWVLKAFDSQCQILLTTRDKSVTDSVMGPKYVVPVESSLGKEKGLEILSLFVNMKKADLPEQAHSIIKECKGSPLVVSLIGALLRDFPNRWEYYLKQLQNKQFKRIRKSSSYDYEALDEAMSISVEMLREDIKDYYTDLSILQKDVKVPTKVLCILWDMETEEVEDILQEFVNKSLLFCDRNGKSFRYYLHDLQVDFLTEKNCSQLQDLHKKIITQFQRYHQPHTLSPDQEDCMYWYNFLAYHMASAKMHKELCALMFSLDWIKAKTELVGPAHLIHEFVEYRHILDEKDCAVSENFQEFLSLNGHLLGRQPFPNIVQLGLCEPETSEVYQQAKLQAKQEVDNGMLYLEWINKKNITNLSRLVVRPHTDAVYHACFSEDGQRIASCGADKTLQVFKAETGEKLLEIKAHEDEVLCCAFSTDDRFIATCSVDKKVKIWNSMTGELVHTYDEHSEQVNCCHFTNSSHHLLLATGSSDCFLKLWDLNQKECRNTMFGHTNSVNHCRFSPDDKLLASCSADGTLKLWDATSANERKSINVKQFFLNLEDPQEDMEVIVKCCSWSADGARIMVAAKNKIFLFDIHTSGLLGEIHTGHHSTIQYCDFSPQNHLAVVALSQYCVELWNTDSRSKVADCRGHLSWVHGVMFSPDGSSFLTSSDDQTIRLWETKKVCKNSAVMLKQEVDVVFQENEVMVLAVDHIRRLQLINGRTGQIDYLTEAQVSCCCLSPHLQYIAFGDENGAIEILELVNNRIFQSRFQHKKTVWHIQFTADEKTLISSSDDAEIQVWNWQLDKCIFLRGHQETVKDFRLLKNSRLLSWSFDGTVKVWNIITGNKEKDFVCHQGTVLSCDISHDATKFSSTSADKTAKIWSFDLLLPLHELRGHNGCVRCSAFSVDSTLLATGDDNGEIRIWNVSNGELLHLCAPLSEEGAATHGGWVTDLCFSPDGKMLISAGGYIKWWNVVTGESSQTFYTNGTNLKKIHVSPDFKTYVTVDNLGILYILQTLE

[4] = target: ALK tyrosine kinase receptor (Homo sapiens, UniProt Q9UM73); assay type: functional;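 note: ALK tested as one member of a kinase panel screen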
[5] = target: Serine/threonine-protein kinase D3 (Homo sapiens, UniProt O94806); assay type: functional;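 note: determined within a kinase panel screen, with PRKCN as the panel member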
[6] = target: Tyrosine-protein kinase Lck (Homo sapiens, UniProt P06239); assay type: functional;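 note: lck was assayed as one member of a kinase panel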
[7] = target: Death-associated protein kinase 3 (Homo sapiens, UniProt O43293); assay type: functional;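 note: measured as one member of a kinome-wide profiling panel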
[8] = target: Activin receptor type-1 (Homo sapiens, UniProt Q04771); assay: Navigating the Kinome. Panel member name: ACVR1; assay type: functional
[9] = target: Mitogen-activated protein kinase 8 (Homo sapiens, UniProt P45983); assay type: functional;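 note: value comes from one member of a kinome-wide kinase profiling panel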
[10] = target: Serine/threonine-protein kinase pim-1 (Homo sapiens, UniProt P11309); assay type: functional
[11] = target: Tyrosine-protein kinase BTK (Homo sapiens, UniProt Q06187); assay type: functional
[12] = target: Serine/threonine-protein kinase PAK 4 (Homo sapiens, UniProt O96013); assay type: functional;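 note: value obtained within a kinome profiling panel in which PAK4 was one of the panel members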
[13] = target: Fibroblast growth factor receptor 1 (Homo sapiens, UniProt P11362); assay type: functional
[14] = target: Casein kinase I isoform alpha (Homo sapiens, UniProt P48729); assay type: functional
[15] = target: Tyrosine-protein kinase JAK3 (Homo sapiens, UniProt P52333); assay type: functional
[16] = target: Serine/threonine-protein kinase TAO1 (Homo sapiens, UniProt Q7L7X3); assay type: functional
[17] = target: Glycogen synthase kinase-3 alpha (Homo sapiens, UniProt P49840); assay type: functional;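 note: GSK3A result taken from a broad kinome-wide kinase panel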
[18] = target: Mitogen-activated protein kinase kinase kinase kinase 2 (Homo sapiens, UniProt Q12851); assay type: functional;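 note: measured as one member of a kinome-wide kinase panel, with MAP4K2 as the panel entry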
[19] = target: Hepatocyte growth factor receptor (Homo sapiens, UniProt P08581); assay type: functional;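 note: kinase panel profiling across the kinome, with MET as the panel member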
[20] = target: Serine/threonine-protein kinase Chk1 (Homo sapiens, UniProt O14757); assay type: functional;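 note: measured as one member of a kinome-wide kinase profiling panel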
[21] = target: G protein-coupled receptor kinase 5 (Homo sapiens, UniProt P34947); assay: Navigating the Kinome. Panel member name: GPRK5; assay type: functional
[22] = target: Dual specificity tyrosine-phosphorylation-regulated kinase 1B (Homo sapiens, UniProt Q9Y463); assay: Navigating the Kinome. Panel member name: DYRK1B; assay type: functional
[23] = target: cAMP-dependent protein kinase catalytic subunit PRKX (Homo sapiens, UniProt P51817); assay type: functional
[24] = target: Platelet-derived growth factor receptor alpha (Homo sapiens, UniProt P16234); assay: Navigating the Kinome. Panel member name: PDGFRA; assay type: functional
[25] = target: Aurora kinase B (Homo sapiens, UniProt Q96GD4); assay type: functional
[26] = target: Tyrosine-protein kinase Fyn (Homo sapiens, UniProt P06241); assay type: functional
[27] = target: Serine/threonine-protein kinase Nek2 (Homo sapiens, UniProt P51955); assay type: functional
[28] = target: Cyclin-dependent kinase 8 (Homo sapiens, UniProt P49336); assay: Navigating the Kinome. Panel member name: CDK8; assay type: functional
[29] = target: Cyclin-dependent kinase 7 (Homo sapiens, UniProt P50613); assay type: functional;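 note: value comes from a kinome-wide kinase profiling panel in which CDK7 is one member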
[30] = target: Vascular endothelial growth factor receptor 1 (Homo sapiens, UniProt P17948); assay type: functional;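 note: measured within a kinome-wide profiling panel, FLT1 as the panel member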
[31] = target: Dual specificity protein kinase CLK4 (Homo sapiens, UniProt Q9HAZ1); assay type: functional
[32] = target: Mitogen-activated protein kinase kinase kinase kinase 4 (Homo sapiens, UniProt O95819); assay type: functional
[33] = target: Dual specificity tyrosine-phosphorylation-regulated kinase 1A (Homo sapiens, UniProt Q13627); assay type: functional;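 note: measured against DYRK1A as one member of a broad kinome profiling panel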
[34] = target: Calcium/calmodulin-dependent protein kinase type II subunit alpha (Homo sapiens, UniProt Q9UQM7); assay: Navigating the Kinome. Panel member name: CAMK2A; assay type: functional
[35] = target: Leukocyte tyrosine kinase receptor (Homo sapiens, UniProt P29376); assay: Navigating the Kinome. Panel member name: LTK; assay type: functional
[36] = target: Mitogen-activated protein kinase 14 (Homo sapiens, UniProt Q16539); assay type: functional;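 note: part of a kinome-wide panel, MAPK14 entry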
[37] = target: Heat shock protein HSP 90-alpha (Homo sapiens, UniProt P07900); assay type: functional, organism-based
[38] = target: T2, High affinity choline transporter 1 (Homo sapiens, UniProt Q9GZV3); assay: CHT inhibitors, dose response, cell-based, 5-point CRC, membrane potential dye (AID 504840); assay type: functional
T2 sequence (Q9GZV3 whole entry): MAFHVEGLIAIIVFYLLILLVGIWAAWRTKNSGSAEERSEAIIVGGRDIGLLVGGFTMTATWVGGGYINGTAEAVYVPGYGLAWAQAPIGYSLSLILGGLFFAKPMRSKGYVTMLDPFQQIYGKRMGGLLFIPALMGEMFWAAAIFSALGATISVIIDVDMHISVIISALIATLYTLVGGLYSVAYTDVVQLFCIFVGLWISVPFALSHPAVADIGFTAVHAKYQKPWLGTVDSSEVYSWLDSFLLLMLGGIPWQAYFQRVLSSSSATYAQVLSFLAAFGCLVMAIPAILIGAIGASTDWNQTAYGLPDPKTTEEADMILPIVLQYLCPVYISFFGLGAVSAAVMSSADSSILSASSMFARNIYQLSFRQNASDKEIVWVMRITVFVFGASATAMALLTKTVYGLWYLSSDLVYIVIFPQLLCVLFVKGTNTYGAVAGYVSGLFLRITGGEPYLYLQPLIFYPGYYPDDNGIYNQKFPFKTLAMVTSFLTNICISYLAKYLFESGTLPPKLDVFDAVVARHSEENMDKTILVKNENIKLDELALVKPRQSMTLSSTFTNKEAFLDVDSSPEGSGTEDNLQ

[39] = tested on: H9c2; assay: cells; assay type: functional, cell-based; conditions: Rattus norvegicus, H9c2, Myocardium;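 note: confirmatory concentration-response retest of ultra-high-throughput screening hits for modulation of myocardial damage; cell death induced by hydrogen peroxide oxidative stress; compound pretreatment for 60 min then peroxide exposure for 2 h; potency is for protecting the cells against peroxide damage rather than for killing them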
[40] = target: T2, High affinity choline transporter 1; assay: CHT inhibitors, dose response, cell-based, 10-point CRC, membrane potential dye (AID 588401); assay type: functional;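 note: membrane potential dye fluorescence of choline-evoked depolarization via CHT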
[41] = target: Cyclin-dependent kinase 19 (Homo sapiens, UniProt Q9BWU1); assay: Navigating the Kinome. Panel member name: CDC2L6; assay type: functional

Chain of ALK tyrosine kinase receptor (Q9UM73 whole entry): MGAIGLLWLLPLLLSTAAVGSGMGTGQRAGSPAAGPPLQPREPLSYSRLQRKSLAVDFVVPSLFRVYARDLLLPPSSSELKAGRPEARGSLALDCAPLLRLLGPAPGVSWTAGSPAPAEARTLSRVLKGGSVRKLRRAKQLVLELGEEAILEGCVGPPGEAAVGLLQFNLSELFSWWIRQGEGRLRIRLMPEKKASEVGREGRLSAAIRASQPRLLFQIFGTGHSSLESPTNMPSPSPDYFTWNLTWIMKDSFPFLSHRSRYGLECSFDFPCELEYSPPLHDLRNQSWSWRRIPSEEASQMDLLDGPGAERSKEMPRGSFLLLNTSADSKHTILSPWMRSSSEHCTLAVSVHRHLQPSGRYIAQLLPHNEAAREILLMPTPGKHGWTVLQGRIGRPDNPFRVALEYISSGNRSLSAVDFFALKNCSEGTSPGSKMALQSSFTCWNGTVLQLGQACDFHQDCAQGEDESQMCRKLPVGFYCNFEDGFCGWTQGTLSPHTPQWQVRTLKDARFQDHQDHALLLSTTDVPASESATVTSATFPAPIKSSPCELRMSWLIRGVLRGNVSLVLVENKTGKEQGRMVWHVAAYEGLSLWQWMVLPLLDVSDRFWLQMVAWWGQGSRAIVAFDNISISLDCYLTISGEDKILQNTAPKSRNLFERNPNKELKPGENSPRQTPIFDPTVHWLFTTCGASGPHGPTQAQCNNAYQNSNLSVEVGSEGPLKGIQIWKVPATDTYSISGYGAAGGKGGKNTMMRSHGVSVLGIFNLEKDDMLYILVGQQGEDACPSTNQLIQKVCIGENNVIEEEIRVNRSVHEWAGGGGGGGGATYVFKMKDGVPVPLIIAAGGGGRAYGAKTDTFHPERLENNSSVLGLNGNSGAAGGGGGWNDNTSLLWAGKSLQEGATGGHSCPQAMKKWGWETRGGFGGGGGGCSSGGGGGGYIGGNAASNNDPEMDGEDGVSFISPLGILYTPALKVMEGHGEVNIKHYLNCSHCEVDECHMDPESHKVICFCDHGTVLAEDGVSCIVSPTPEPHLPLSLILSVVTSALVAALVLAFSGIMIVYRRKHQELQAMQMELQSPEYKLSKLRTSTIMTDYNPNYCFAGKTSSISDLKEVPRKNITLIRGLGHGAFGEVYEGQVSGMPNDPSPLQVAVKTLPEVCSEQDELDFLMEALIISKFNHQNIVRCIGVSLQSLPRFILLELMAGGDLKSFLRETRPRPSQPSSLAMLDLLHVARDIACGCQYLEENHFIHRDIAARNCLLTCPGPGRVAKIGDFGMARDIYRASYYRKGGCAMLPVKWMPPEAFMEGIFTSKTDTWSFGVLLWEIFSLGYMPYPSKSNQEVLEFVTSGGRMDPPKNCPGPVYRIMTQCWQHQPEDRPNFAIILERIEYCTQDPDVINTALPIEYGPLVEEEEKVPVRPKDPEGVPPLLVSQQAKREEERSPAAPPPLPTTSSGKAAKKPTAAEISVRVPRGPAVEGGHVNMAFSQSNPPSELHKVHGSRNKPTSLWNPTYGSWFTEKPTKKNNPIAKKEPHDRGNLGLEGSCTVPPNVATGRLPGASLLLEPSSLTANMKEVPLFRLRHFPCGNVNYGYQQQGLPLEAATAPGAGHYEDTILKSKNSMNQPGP
Chain of Serine/threonine-protein kinase D3 (O94806 whole entry): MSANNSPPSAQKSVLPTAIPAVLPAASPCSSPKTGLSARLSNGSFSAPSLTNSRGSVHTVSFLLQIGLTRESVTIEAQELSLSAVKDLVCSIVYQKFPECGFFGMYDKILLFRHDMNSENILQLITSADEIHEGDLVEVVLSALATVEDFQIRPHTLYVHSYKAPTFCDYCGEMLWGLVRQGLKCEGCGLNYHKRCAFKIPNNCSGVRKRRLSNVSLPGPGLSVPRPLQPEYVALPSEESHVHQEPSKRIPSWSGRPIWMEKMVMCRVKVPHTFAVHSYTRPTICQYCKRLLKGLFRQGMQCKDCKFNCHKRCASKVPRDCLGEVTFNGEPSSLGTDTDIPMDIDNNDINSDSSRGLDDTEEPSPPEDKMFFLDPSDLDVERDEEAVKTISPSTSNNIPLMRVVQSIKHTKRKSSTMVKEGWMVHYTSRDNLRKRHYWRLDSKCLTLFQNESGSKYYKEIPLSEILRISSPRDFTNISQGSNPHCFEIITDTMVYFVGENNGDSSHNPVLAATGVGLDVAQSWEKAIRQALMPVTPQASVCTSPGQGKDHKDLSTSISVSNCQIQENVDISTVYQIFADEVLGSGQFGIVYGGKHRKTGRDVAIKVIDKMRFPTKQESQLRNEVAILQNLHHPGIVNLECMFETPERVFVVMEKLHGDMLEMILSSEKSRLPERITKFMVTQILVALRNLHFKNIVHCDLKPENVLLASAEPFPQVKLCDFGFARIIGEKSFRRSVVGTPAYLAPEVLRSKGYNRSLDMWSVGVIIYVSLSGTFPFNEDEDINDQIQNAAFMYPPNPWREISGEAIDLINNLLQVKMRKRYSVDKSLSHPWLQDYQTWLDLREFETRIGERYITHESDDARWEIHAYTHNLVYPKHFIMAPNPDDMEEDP
Chain of Hepatocyte growth factor receptor (P08581 whole entry): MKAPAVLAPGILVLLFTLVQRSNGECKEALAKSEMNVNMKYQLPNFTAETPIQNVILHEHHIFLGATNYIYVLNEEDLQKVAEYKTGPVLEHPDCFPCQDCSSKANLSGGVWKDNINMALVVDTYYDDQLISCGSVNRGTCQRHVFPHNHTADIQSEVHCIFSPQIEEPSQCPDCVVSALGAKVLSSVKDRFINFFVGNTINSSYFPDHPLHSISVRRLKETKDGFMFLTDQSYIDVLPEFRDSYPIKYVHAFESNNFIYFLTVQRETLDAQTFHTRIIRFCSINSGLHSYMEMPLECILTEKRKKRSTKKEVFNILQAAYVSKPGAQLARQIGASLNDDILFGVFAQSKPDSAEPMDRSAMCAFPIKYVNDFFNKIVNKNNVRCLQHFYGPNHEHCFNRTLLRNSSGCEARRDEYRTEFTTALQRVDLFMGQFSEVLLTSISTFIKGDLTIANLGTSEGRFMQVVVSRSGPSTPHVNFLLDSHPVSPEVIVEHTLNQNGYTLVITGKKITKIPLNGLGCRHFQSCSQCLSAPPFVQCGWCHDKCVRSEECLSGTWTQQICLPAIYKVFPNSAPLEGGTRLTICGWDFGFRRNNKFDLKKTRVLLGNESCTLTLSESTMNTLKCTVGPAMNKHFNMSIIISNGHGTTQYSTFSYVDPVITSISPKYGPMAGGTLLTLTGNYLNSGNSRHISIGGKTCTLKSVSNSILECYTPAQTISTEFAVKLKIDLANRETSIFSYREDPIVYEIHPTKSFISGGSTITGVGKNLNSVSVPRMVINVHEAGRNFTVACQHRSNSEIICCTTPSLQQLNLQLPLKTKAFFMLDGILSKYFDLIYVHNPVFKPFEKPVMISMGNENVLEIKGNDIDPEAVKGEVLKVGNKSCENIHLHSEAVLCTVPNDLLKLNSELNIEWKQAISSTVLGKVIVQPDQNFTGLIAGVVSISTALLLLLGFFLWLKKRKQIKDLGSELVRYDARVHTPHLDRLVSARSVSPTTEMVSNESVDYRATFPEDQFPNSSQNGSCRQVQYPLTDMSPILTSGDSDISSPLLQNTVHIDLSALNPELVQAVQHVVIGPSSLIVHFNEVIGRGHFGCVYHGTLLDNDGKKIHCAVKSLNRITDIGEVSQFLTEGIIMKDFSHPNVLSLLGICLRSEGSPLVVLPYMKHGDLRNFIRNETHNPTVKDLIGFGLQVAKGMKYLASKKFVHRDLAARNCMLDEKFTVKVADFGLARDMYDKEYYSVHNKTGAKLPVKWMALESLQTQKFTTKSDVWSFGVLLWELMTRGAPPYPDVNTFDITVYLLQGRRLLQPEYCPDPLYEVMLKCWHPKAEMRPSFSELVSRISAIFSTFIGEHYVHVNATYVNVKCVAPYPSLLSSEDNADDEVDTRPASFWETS
Chain of Fibroblast growth factor receptor 1 (P11362 whole entry, canonical isoform): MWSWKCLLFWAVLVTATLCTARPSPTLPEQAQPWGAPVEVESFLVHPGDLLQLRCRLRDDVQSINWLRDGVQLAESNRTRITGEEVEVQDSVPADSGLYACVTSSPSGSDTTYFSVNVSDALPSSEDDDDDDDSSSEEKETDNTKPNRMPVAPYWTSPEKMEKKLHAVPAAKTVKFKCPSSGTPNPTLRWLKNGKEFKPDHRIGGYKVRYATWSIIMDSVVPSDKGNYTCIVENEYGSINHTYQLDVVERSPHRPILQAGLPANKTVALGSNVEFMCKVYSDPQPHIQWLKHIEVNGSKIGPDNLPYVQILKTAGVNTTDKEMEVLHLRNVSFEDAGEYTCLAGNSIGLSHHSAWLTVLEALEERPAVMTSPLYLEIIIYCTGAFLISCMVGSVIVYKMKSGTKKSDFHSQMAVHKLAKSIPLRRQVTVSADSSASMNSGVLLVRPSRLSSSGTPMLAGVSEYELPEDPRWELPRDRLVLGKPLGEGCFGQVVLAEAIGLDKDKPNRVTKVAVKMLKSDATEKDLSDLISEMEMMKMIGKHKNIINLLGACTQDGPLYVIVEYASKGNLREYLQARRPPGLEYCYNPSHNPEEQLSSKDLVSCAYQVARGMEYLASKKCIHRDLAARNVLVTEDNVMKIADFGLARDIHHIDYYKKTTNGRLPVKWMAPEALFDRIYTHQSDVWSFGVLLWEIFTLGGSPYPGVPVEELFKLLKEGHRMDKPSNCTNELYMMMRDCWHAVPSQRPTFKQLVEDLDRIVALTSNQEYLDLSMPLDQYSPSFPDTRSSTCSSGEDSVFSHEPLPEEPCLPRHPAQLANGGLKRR
Chain of Serine/threonine-protein kinase pim-1 (P11309 whole entry): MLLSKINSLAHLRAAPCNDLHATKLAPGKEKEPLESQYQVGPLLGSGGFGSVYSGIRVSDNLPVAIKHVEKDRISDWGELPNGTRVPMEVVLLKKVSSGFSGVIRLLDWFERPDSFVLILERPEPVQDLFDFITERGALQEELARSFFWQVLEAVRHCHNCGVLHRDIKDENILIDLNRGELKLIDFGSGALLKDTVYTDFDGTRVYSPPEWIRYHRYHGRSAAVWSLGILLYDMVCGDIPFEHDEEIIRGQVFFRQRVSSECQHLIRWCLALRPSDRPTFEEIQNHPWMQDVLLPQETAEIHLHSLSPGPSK

Question: Which EC50 [1] does the source give for `O=C(Cc1ccccc1)c1ccccn1` here?
Answer: 8.6 µM (active)

Question: What about the EC50 [2] of the same compound?
Answer: > 20 µM (inactive)

Question: Which IC50 [3] does the source give for `Cc1cc(NC(=O)C2CC2)sc1C(=O)Nc1ccc2[nH]c(-c3cc(F)ccc3F)nc2c1` here?
Answer: 42.4 µM (active)

Question: For `CCN1c2cc(N)ccc2-c2ccc(N)cc2C1(O)c1ccccc1` (configuration not stated), which Ki [4] is on record?
Answer: > 6.31 µM (inactive)

Question: And the Ki [5]?
Answer: 3.98 µM (active)

Question: What about the Ki [6] of the same compound?
Answer: > 6.31 µM (inactive)

Question: What about the Ki [7] of the same compound?
Answer: > 5.01 µM (inactive)

Question: What about the Ki [8] of the same compound?
Answer: > 3.98 µM (inactive)

Question: What about the Ki [9] of the same compound?
Answer: > 5.01 µM (inactive)

Question: And the Ki [10]?
Answer: > 6.31 µM (inactive)

Question: And the Ki [11]?
Answer: 3.98 µM (active)

Question: And the Ki [12]?
Answer: > 5.01 µM (inactive)

Question: And the Ki [13]?
Answer: > 3.98 µM (inactive)

Question: What about the Ki [14] of the same compound?
Answer: > 3.98 µM (inactive)

Question: What about the Ki [15] of the same compound?
Answer: 3.16 µM (active)

Question: What about the Ki [16] of the same compound?
Answer: 3.16 µM (active)

Question: And the Ki [17]?
Answer: > 3.98 µM (inactive)

Question: And the Ki [18]?
Answer: 2 µM (active)

Question: What about the Ki [19] of the same compound?
Answer: 2.51 µM (active)

Question: And the Ki [20]?
Answer: 2 µM (active)

Question: And the Ki [21]?
Answer: > 3.98 µM (inactive)

Question: And the Ki [22]?
Answer: 2.51 µM (active)

Question: What about the Ki [23] of the same compound?
Answer: 2 µM (active)

Question: What about the Ki [24] of the same compound?
Answer: 1.26 µM (active)

Question: What about the Ki [25] of the same compound?
Answer: > 3.98 µM (inactive)

Question: What about the Ki [26] of the same compound?
Answer: > 6.31 µM (inactive)

Question: What about the Ki [27] of the same compound?
Answer: 2 µM (active)

Question: What about the Ki [28] of the same compound?
Answer: > 3.98 µM (inactive)

Question: What about the Ki [29] of the same compound?
Answer: > 3.98 µM (inactive)

Question: What about the Ki [30] of the same compound?
Answer: 3.16 µM (active)

Question: What about the Ki [31] of the same compound?
Answer: 0.398 µM (active)

Question: And the Ki [32]?
Answer: 3.16 µM (active)

Question: And the Ki [33]?
Answer: 0.794 µM (active)

Question: And the Ki [34]?
Answer: > 3.98 µM (inactive)

Question: What about the Ki [35] of the same compound?
Answer: 2 µM (active)

Question: And the Ki [36]?
Answer: > 3.98 µM (inactive)

Question: Which results are given for `Oc1c(Br)cc(Br)cc1/C=N/Cc1ccccc1`?
Answer: AC50 [37]: 5.31 µM (active); IC50 [38]: 9.73 µM (active); IC50 [39]: > 79 µM (inactive); IC50 [40]: 3.16 µM (active)

Question: What does the source list for `Cn1cc(Nc2ncc(Br)c(Nc3ccccc3S(C)(=O)=O)n2)cn1`?
Answer: Ki [4]: 2.51 µM (active); Ki [41]: > 100 µM (inactive)
